Measured values published in PubChem BioAssay (NCI).
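Briefly, cells in 96-well plates were exposed to five compound concentrations for 48 h, and endpoints were estimated by linear interpolation. TGI denotes the concentration required for complete inhibition of growth.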

Columns and labels:
Test in all cases: growth of human tumour cells (NCI), 48 h
LXFL 529 NSCLC = system: LXFL 529 NSCLC
MALME-3M melanoma = system: MALME-3M melanoma
SK-MEL-5 melanoma = system: SK-MEL-5 melanoma
SK-MEL-2 melanoma = system: SK-MEL-2 melanoma
KM12 colon = system: KM12 colon
SNB-75 CNS = system: SNB-75 CNS
UACC-62 melanoma = system: UACC-62 melanoma
XF 498 CNS = system: XF 498 CNS
DMS 114 small cell lung = system: DMS 114 small cell lung
U251 CNS = system: U251 CNS
HT29 colon = system: HT29 colon
SF-268 CNS = system: SF-268 CNS
SK-OV-3 ovarian = system: SK-OV-3 ovarian
A549 NSCLC = system: A549 NSCLC
DLD-1 colon = system: DLD-1 colon
HL-60(TB) leukemia = system: HL-60(TB) leukemia
OVCAR-8 ovarian = system: OVCAR-8 ovarian
ACHN renal = system: ACHN renal
CCRF-CEM leukemia = system: CCRF-CEM leukemia
TK-10 renal = system: TK-10 renal
MOLT-4 leukemia = system: MOLT-4 leukemia
LOX IMVI melanoma = system: LOX IMVI melanoma
SW-620 colon = system: SW-620 colon
OVCAR-3 ovarian = system: OVCAR-3 ovarian
SNB-78 CNS = system: SNB-78 CNS
NCI-H522 lung = system: NCI-H522 lung
OVCAR-4 ovarian = system: OVCAR-4 ovarian
HCT-116 colon = system: HCT-116 colon
HCT-15 colon = system: HCT-15 colon
NCI-H226 lung = system: NCI-H226 lung
K-562 leukemia = system: K-562 leukemia
M19-MEL melanoma = system: M19-MEL melanoma
SF-295 CNS = system: SF-295 CNS
DMS 273 small cell lung = system: DMS 273 small cell lung
UO-31 renal = system: UO-31 renal
SN12C renal = system: SN12C renal
NCI-H460 lung = system: NCI-H460 lung
RXF 393 renal = system: RXF 393 renal
SF-539 CNS = system: SF-539 CNS
UACC-257 melanoma = system: UACC-257 melanoma
SK-MEL-28 melanoma = system: SK-MEL-28 melanoma
HOP-18 NSCLC = system: HOP-18 NSCLC
HCC-2998 colon = system: HCC-2998 colon
COLO 205 colon = system: COLO 205 colon
KM20L2 colon = system: KM20L2 colon
M14 melanoma = system: M14 melanoma
NCI-H23 lung = system: NCI-H23 lung
HOP-62 NSCLC = system: HOP-62 NSCLC
CAKI-1 renal = system: CAKI-1 renal
RPMI-8226 leukemia = system: RPMI-8226 leukemia
A498 renal = system: A498 renal
OVCAR-5 ovarian = system: OVCAR-5 ovarian
EKVX NSCLC = system: EKVX NSCLC
786-0 renal = system: 786-0 renal
SR leukemia = system: SR leukemia
IGROV1 ovarian = system: IGROV1 ovarian
SNB-19 CNS = system: SNB-19 CNS
MDA-MB-435 = system: MDA-MB-435
DU-145 prostate = system: DU-145 prostate
BT-549 breast = system: BT-549 breast
HS 578T breast = system: HS 578T breast
T-47D breast = system: T-47D breast
MCF7 breast = system: MCF7 breast
HOP-92 NSCLC = system: HOP-92 NSCLC
MDA-MB-231 breast = system: MDA-MB-231 breast

OCc1ccccc1C1CSCSC1
TGI (LXFL 529 NSCLC): > 100 µM
TGI (MALME-3M melanoma): > 100 µM
TGI (SK-MEL-5 melanoma): > 100 µM
TGI (SK-MEL-2 melanoma): > 100 µM
TGI (KM12 colon): > 100 µM
TGI (SNB-75 CNS): > 100 µM
TGI (UACC-62 melanoma): > 100 µM
TGI (XF 498 CNS): > 100 µM
TGI (DMS 114 small cell lung): > 100 µM
TGI (U251 CNS): > 100 µM
TGI (HT29 colon): > 100 µM
TGI (SF-268 CNS): > 100 µM
TGI (SK-OV-3 ovarian): > 100 µM
TGI (A549 NSCLC): > 100 µM
TGI (DLD-1 colon): > 100 µM
TGI (HL-60(TB) leukemia): > 100 µM
TGI (OVCAR-8 ovarian): > 100 µM
TGI (ACHN renal): > 100 µM
TGI (CCRF-CEM leukemia): > 100 µM
TGI (TK-10 renal): > 100 µM
TGI (MOLT-4 leukemia): > 100 µM
TGI (LOX IMVI melanoma): > 100 µM
TGI (SW-620 colon): > 100 µM
TGI (OVCAR-3 ovarian): > 100 µM
TGI (SNB-78 CNS): > 100 µM
TGI (NCI-H522 lung): > 100 µM
TGI (OVCAR-4 ovarian): > 100 µM
TGI (HCT-116 colon): > 100 µM
TGI (HCT-15 colon): > 100 µM
TGI (NCI-H226 lung): > 100 µM
TGI (K-562 leukemia): > 100 µM
TGI (M19-MEL melanoma): > 100 µM
TGI (SF-295 CNS): > 100 µM
TGI (DMS 273 small cell lung): > 100 µM
TGI (UO-31 renal): > 100 µM
TGI (SN12C renal): > 100 µM
TGI (NCI-H460 lung): > 100 µM
TGI (RXF 393 renal): > 100 µM
TGI (SF-539 CNS): > 100 µM
TGI (UACC-257 melanoma): > 100 µM
TGI (SK-MEL-28 melanoma): > 100 µM

C1CN2N3CCCC23C1 (configuration not stated)
TGI (LXFL 529 NSCLC): > 100 µM
TGI (HOP-18 NSCLC): > 100 µM
TGI (HCC-2998 colon): > 100 µM
TGI (MALME-3M melanoma): > 100 µM
TGI (SK-MEL-5 melanoma): > 100 µM
TGI (COLO 205 colon): > 100 µM
TGI (SK-MEL-2 melanoma): > 100 µM
TGI (KM12 colon): > 100 µM
TGI (SNB-75 CNS): > 100 µM
TGI (UACC-62 melanoma): > 100 µM
TGI (KM20L2 colon): > 100 µM
TGI (XF 498 CNS): > 100 µM
TGI (DMS 114 small cell lung): > 100 µM
TGI (U251 CNS): > 100 µM
TGI (HT29 colon): > 100 µM
TGI (SF-268 CNS): > 100 µM
TGI (SK-OV-3 ovarian): > 100 µM
TGI (M14 melanoma): > 100 µM
TGI (NCI-H23 lung): > 100 µM
TGI (A549 NSCLC): > 100 µM
TGI (DLD-1 colon): > 100 µM
TGI (HL-60(TB) leukemia): > 100 µM
TGI (HOP-62 NSCLC): > 100 µM
TGI (CAKI-1 renal): > 100 µM
TGI (OVCAR-8 ovarian): > 100 µM
TGI (ACHN renal): > 100 µM
TGI (CCRF-CEM leukemia): > 100 µM
TGI (TK-10 renal): > 100 µM
TGI (MOLT-4 leukemia): > 100 µM
TGI (RPMI-8226 leukemia): > 100 µM
TGI (A498 renal): > 100 µM
TGI (LOX IMVI melanoma): > 100 µM
TGI (SW-620 colon): > 100 µM
TGI (OVCAR-3 ovarian): > 100 µM
TGI (SNB-78 CNS): > 100 µM
TGI (NCI-H522 lung): > 100 µM
TGI (OVCAR-5 ovarian): > 100 µM
TGI (EKVX NSCLC): > 100 µM
TGI (OVCAR-4 ovarian): > 100 µM
TGI (HCT-116 colon): > 100 µM
TGI (HCT-15 colon): > 100 µM
TGI (NCI-H226 lung): > 100 µM
TGI (K-562 leukemia): > 100 µM
TGI (786-0 renal): > 100 µM
TGI (M19-MEL melanoma): > 100 µM
TGI (SF-295 CNS): > 100 µM
TGI (DMS 273 small cell lung): > 100 µM
TGI (UO-31 renal): > 100 µM
TGI (SN12C renal): > 100 µM
TGI (SR leukemia): > 100 µM
TGI (NCI-H460 lung): > 100 µM
TGI (RXF 393 renal): > 100 µM
TGI (IGROV1 ovarian): > 100 µM
TGI (SNB-19 CNS): > 100 µM
TGI (SF-539 CNS): > 100 µM
TGI (UACC-257 melanoma): > 100 µM
TGI (SK-MEL-28 melanoma): > 100 µM

CN(C)c1ccc(/C=C2\C[N+](C)(C)C/C(=C\c3ccc(N(C)C)cc3)C2=O)cc1
TGI (LXFL 529 NSCLC): 20.4 µM
TGI (HOP-18 NSCLC): > 100 µM
TGI (HCC-2998 colon): 22.1 µM
TGI (MALME-3M melanoma): 46.4 µM
TGI (SK-MEL-5 melanoma): 23.6 µM
TGI (COLO 205 colon): 8.36 µM
TGI (SK-MEL-2 melanoma): 36.1 µM
TGI (KM12 colon): 19.1 µM
TGI (SNB-75 CNS): 67.3 µM
TGI (UACC-62 melanoma): 30.6 µM
TGI (KM20L2 colon): 27.7 µM
TGI (DMS 114 small cell lung): 26.1 µM
TGI (U251 CNS): 25 µM
TGI (HT29 colon): 24 µM
TGI (SF-268 CNS): 66.2 µM
TGI (SK-OV-3 ovarian): 73.1 µM
TGI (M14 melanoma): 74.8 µM
TGI (NCI-H23 lung): 54.4 µM
TGI (A549 NSCLC): > 100 µM
TGI (MDA-MB-435): 30 µM
TGI (DU-145 prostate): > 100 µM
TGI (DLD-1 colon): > 100 µM
TGI (HL-60(TB) leukemia): 13.1 µM
TGI (HOP-62 NSCLC): > 96.7 µM
TGI (CAKI-1 renal): > 100 µM
TGI (OVCAR-8 ovarian): 65.7 µM
TGI (ACHN renal): > 100 µM
TGI (CCRF-CEM leukemia): 38.9 µM
TGI (TK-10 renal): > 100 µM
TGI (BT-549 breast): 34.3 µM
TGI (MOLT-4 leukemia): 59.3 µM
TGI (RPMI-8226 leukemia): 28.5 µM
TGI (A498 renal): > 100 µM
TGI (LOX IMVI melanoma): 36.4 µM
TGI (HS 578T breast): > 100 µM
TGI (SW-620 colon): 43.2 µM
TGI (T-47D breast): 46.6 µM
TGI (OVCAR-3 ovarian): 17.2 µM
TGI (SNB-78 CNS): > 95.8 µM
TGI (NCI-H522 lung): 26.2 µM
TGI (OVCAR-5 ovarian): 96.5 µM
TGI (EKVX NSCLC): > 100 µM
TGI (OVCAR-4 ovarian): > 100 µM
TGI (HCT-116 colon): 22.5 µM
TGI (HCT-15 colon): > 100 µM
TGI (NCI-H226 lung): 90.8 µM
TGI (K-562 leukemia): 31.3 µM
TGI (786-0 renal): 85.3 µM
TGI (M19-MEL melanoma): 30.3 µM
TGI (SF-295 CNS): > 100 µM
TGI (DMS 273 small cell lung): 18.5 µM
TGI (UO-31 renal): > 100 µM
TGI (SN12C renal): > 78 µM
TGI (MCF7 breast): 30.5 µM
TGI (SR leukemia): 36.6 µM
TGI (NCI-H460 lung): > 59 µM
TGI (RXF 393 renal): > 77.7 µM
TGI (HOP-92 NSCLC): 78.9 µM
TGI (IGROV1 ovarian): 18 µM
TGI (SNB-19 CNS): 45.4 µM
TGI (SF-539 CNS): 49.9 µM
TGI (UACC-257 melanoma): 32.4 µM
TGI (MDA-MB-231 breast): 36.7 µM
TGI (SK-MEL-28 melanoma): 37.4 µM
